The source of these data is patent publication US12187729B2, “Compounds having PDE9A inhibitory activity, and pharmaceutical uses thereof” (KOREA RESEARCH INSTITUTE OF CHEMICAL TECHNOLOGY, priority 2018, dated 2025).

Sequence of PDE9A (O76083 whole entry): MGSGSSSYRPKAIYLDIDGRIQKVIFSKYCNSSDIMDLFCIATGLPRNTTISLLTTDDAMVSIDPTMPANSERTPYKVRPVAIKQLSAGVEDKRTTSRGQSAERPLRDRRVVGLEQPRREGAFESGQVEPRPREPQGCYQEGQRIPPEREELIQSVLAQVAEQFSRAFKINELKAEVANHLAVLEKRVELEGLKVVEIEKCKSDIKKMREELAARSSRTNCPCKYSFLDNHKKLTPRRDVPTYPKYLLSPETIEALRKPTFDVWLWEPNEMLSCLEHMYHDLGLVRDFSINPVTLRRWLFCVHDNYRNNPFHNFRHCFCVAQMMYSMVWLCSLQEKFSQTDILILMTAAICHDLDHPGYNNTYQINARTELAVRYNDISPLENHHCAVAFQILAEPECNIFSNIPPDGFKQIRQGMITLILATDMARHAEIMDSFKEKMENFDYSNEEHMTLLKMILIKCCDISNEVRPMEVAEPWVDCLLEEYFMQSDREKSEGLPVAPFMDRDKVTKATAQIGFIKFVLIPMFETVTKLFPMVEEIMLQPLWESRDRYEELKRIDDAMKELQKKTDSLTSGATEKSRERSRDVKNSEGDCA

The assay addresses PDE9A (Homo sapiens (Human), UniProt O76083). The experiment in a line: PDE9A inhibitory activity, fluorescence polarization assay (IMAP-FP screening express kit). The assay is classed as biochemical. To be noted: enzyme PDE9A 5 ng/ml, Fl-cGMP substrate 100 nM, room temperature 1 hour. As for the experimental part:
The inhibitory activity of the representative compounds according to the present invention against phosphodiesterase 9A was tested based on the polarization assay (IMAP-FP screening express kit) provided by MDS (MDS Analytical Technologies, Sunyvale, CA, USA). As a buffer solution, a reaction solution (a reaction solution containing 0.01% Tween 20 provided by MDS was diluted 5 times, then 5 mM DTT is added) and a polarization detection solution (binding solution A and B provided by MDS were mixed at a ratio of 3:1 and IMAP binding reagent 1/600 was added) were prepared. 100 μM of the substrate (Fl-cGMP substrate; MDS) and 3.6 μg/ml of the enzyme PDE9A (ab54113; abeam) were prepared. 3.6 μg/ml PDE9A and 100 μM substrate were diluted to 20 ng/ml (final reaction concentration: 5 ng/ml) and 400 nM (final reaction concentration: 100 nM), respectively. The buffer solution used for all dilution and preparation processes was 1× reaction solution with 1 mM DTT added, and the polarization detection solution was used to induce polarization at the end.
The prepared samples were dispensed on black microplates (Multiwell 384 well plates, #3573, Corning Life Sciences, Lowell, MA, USA) using a 16-channel pipette (multi 16-channel, Finnpipette, Thermo Scientific, Essex, UK). The total reaction volume per well is 20 μl. At this time, 10 μl of 2% DMSO, 5 μl of substrate solution, and 5 μl of reaction solution were used as a negative control, and 10 μl of 2% DMSO, 5 μl of substrate solution, and 5 μl of PDE9A solution were used as a positive control. As the experimental group, 10 μl of the compound prepared in Example, 5 μl of the substrate solution, and 5 μl of the PDE9A solution were used. After pretreatment between the compound and the enzyme was performed for about […] before the enzyme-substrate reaction, 5 μl of cGMP was added to induce the enzyme reaction. During the reaction, each compound, enzyme, and substrate occupied 50%, 25%, and 25% of the total volume, respectively, and they were prepared at high concentrations of 2, 4, and 4 times, respectively, immediately before addition. After the enzymatic reaction, it was shaken lightly for 1 minute and the enzyme reaction was induced at room temperature for 1 hour. Then, 60 μl of a polarization detection solution prepared in advance was added to induce polarization.
Nanoparticles composed of trivalent metal ions are mixed in the fluorescence detection solution, which combines with phosphoric acid expose by enzymatic reaction to increase the molecular weight and induce polarization. After leaving for 2 hours at room temperature, the polarization (Fluorescence Polarization, FP) value was measured using a multilabel counter (Envision, PerkinElmer, Turku, Finland) (emission wavelength: P-535 nm, S-535 nm, excitation wavelength: 480 nm), and the result was expressed as an IC50 value, which is the concentration of the compound that inhibited PDE9A by 50% in vitro (Table 2).
For orientation: In fluorescence polarisation assays a small probe gives low polarisation when free and higher when bound to something large.
The term IC50 denotes the concentration that inhibits the measured activity by half. `O=C(CSc1nc2c(cnn2-c2ccccc2)c(=O)[nH]1)Nc1nnc(SCc2ccccc2)s1` [Example 6]: the IC50 worked out at 14 nM.

On to `CCSc1nnc(NC(=O)CSc2nc3c(cnn3C3CCOCC3)c(=O)[nH]2)s1` [Example 27, N-(5-(ethylthio)-1,3,4-thiadiazol-2-yl)-2-((4-oxo-1-(tetrahydro-2H-pyran-4-yl)-4,5-dihydro-1H-pyrazolo[3,4-d]pyrimidin-6-yl)thio)acetamide], for which 0.5 nM corresponded to half-maximal inhibition (IC50).

In the case of `O=C(CSc1nc2c(cnn2C2CCOCC2)c(=O)[nH]1)Nc1nnc(Br)s1` [Example 33, N-(5-bromo-1,3,4-thiadiazol-2-yl)-2-((4-oxo-1-(tetrahydro-2H-pyran-4-yl)-4,5-dihydro-1H-pyrazolo[3,4-d]pyrimidin-6-yl)thio)acetamide], the IC50 was found to be 0.4 nM.

In the case of `CCSc1nnc(NC(=O)C(Sc2nc3c(cnn3-c3ccccc3)c(=O)[nH]2)c2ccccc2)s1` (centres unmarked) [Example 26, N-(5-(ethylthio)-1,3,4-thiadiazol-2-yl)-2-((4-oxo-1-phenyl-4,5-dihydro-1H-pyrazolo[3,4-d]pyrimidin-6-yl)thio)-2-phenylacetamide], the IC50 worked out at 9 nM.

For the compound `CCSc1nnc(NC(=O)CSc2nc3c(cnn3C3CCSCC3)c(=O)[nH]2)s1` [Example 29, N-(5-(ethylthio)-1,3,4-thiadiazol-2-yl)-2-((4-oxo-1-(tetrahydro-2H-thiopyran-4-yl)-4,5-dihydro-1H-pyrazolo[3,4-d]pyrimidin-6-yl)thio)acetamide], the IC50 was found to be 0.3 nM.

`CCSc1nnc(NC(=O)C(C)Sc2nc3c(cnn3C3CCC(F)(F)CC3)c(=O)[nH]2)s1` (centres unmarked) [Example 28, 2-((1-(4,4-difluorocyclohexyl)-4-oxo-4,5-dihydro-1H-pyrazolo[3,4-d]pyrimidin-6-yl)thio)-N-(5-(ethylthio)-1,3,4-thiadiazol-2-yl)propanamide] registered a 50% inhibitory concentration (IC50) of 0.1 nM.

Regarding `CCSc1nnc(NC(=O)C(C)Sc2nc3c(cnn3C3CCOCC3)c(=O)[nH]2)s1` (centres unmarked) [Example 45, N-(5-(ethylthio)-1,3,4-thiadiazol-2-yl)-2-((4-oxo-1-(tetrahydro-2H-pyran-4-yl)-4,5-dihydro-1H-pyrazolo[3,4-d]pyrimidin-6-yl)thio)propanamide], the half-inhibitory concentration (IC50) is 0.1 nM.

`Cc1nnc(NC(=O)CSc2nc3c(cnn3-c3ccccc3)c(=O)[nH]2)s1` [Example 3, N-(5-methyl-1,3,4-thiadiazol-2-yl)-2-((4-oxo-1-phenyl-4,5-dihydro-1H-pyrazolo[3,4-d]pyrimidin-6-yl)thio)acetamide]: it took 340 nM to reach half-maximal inhibition (IC50).

In the case of `CCSc1nnc(NC(=O)CSc2nc3c(cnn3-c3ccc(F)cc3)c(=O)[nH]2)s1` [Example 16, N-(5-(ethylthio)-1,3,4-thiadiazol-2-yl)-2-((1-(4-fluorophenyl)-4-oxo-4,5-dihydro-1H-pyrazolo[3,4-d]pyrimidin-6-yl)thio)acetamide], the half-maximal inhibitory concentration (IC50) is 27 nM.

Turning to `O=C(CSc1nc2c(cnn2C2CCC(F)(F)CC2)c(=O)[nH]1)Nc1nnc(Cl)s1` [Example 1, 2-((1-(4,4-difluorocyclohexyl)-4-oxo-4,5-dihydro-1H-pyrazolo[3,4-d]pyrimidin-6-yl)thio)-N-(5-chloro-1,3,4-thiadiazol-2-yl)acetamide], 0.4 nM corresponded to half-maximal inhibition (IC50).

As to `O=C(CSc1nc2c(cnn2C2CC2)c(=O)[nH]1)Nc1nnc(Cl)s1` [Example 44, N-(5-chloro-1,3,4-thiadiazol-2-yl)-2-((1-cyclopropyl-4-oxo-4,5-dihydro-1H-pyrazolo[3,4-d]pyrimidin-6-yl)thio)acetamide], the IC50 was found to be 36 nM.

In turn, `O=C(CSc1nc2c(cnn2C2CCSCC2)c(=O)[nH]1)Nc1nnc(Br)s1` [Example 32, N-(5-bromo-1,3,4-thiadiazol-2-yl)-2-((4-oxo-1-(tetrahydro-2H-thiopyran-4-yl)-4,5-dihydro-1H-pyrazolo[3,4-d]pyrimidin-6-yl)thio)acetamide] gave an IC50 of 0.6 nM.

Turning to `O=C(CSc1nc2c(cnn2-c2ccccc2)c(=O)[nH]1)Nc1nnc(Br)s1` [Example 7, N-(5-bromo-1,3,4-thiadiazol-2-yl)-2-((4-oxo-1-phenyl-4,5-dihydro-1H-pyrazolo[3,4-d]pyrimidin-6-yl)thio)acetamide], the IC50 amounted to 12 nM.

`CCSc1nnc(NC(=O)CSc2nc3c(cnn3C(C)C)c(=O)[nH]2)s1` [Example 37, N-(5-(ethylthio)-1,3,4-thiadiazol-2-yl)-2-((1-isopropyl-4-oxo-4,5-dihydro-1H-pyrazolo[3,4-d]pyrimidin-6-yl)thio)acetamide] yielded an IC50 of 1 nM.

On to `O=C(CSc1nc2c(cnn2-c2ccccc2)c(=O)[nH]1)Nc1nncs1` [Example 4, 2-((4-oxo-1-phenyl-4,5-dihydro-1H-pyrazolo[3,4-d]pyrimidin-6-yl)thio)-N-(1,3,4-thiadiazol-2-yl)acetamide], for which the IC50 was 230 nM.

As for `O=C(CSc1nc2c(cnn2C2CCOCC2)c(=O)[nH]1)Nc1nnc(Cl)s1` [Example 36, N-(5-chloro-1,3,4-thiadiazol-2-yl)-2-((4-oxo-1-(tetrahydro-2H-pyran-4-yl)-4,5-dihydro-1H-pyrazolo[3,4-d]pyrimidin-6-yl)thio)acetamide], inhibition was half-maximal at 0.7 nM (IC50).

Turning to `O=C(CSc1nc2c(cnn2C2CCSCC2)c(=O)[nH]1)Nc1nnc(Cl)s1` [Example 39, N-(5-chloro-1,3,4-thiadiazol-2-yl)-2-((4-oxo-1-(tetrahydro-2H-thiopyran-4-yl)-4,5-dihydro-1H-pyrazolo[3,4-d]pyrimidin-6-yl)thio)acetamide], the IC50 was determined as 1 nM.

Take `CCSc1nnc(NC(=O)C(C)Sc2nc3c(cnn3-c3ccccc3)c(=O)[nH]2)s1` (centres unmarked) [Example 11, N-(5-(ethylthio)-1,3,4-thiadiazol-2-yl)-2-((4-oxo-1-phenyl-4,5-dihydro-1H-pyrazolo[3,4-d]pyrimidin-6-yl)thio)propanamide]: the IC50 amounted to 10 nM.

For the compound `CCSc1nnc(NC(=O)CSc2nc3c(cnn3C3CCCCC3)c(=O)[nH]2)s1` [Example 34, N-(5-(ethylthio)-1,3,4-thiadiazol-2-yl)-2-((4-oxo-1-cyclohexyl-4,5-dihydro-1H-pyrazolo[3,4-d]pyrimidin-6-yl)thio)acetamide], half-maximal inhibition (IC50) required 1 nM.

As to `O=C(CSc1nc2c(cnn2-c2ccccc2)c(=O)[nH]1)Nc1nnc(Cl)s1` [Example 30, N-(5-chloro-1,3,4-thiadiazol-2-yl)-2-((4-oxo-1-phenyl-4,5-dihydro-1H-pyrazolo[3,4-d]pyrimidin-6-yl)thio)acetamide], the IC50 turned out to be 18 nM.

For `Cc1ccc(CSc2nnc(NC(=O)CSc3nc4c(cnn4-c4ccccc4)c(=O)[nH]3)s2)cc1` [Example 9], the IC50 stood at 15 nM.

`CC(Sc1nc2c(cnn2C2CCC(F)(F)CC2)c(=O)[nH]1)C(=O)Nc1nnc(Br)s1` (centres unmarked) [Example 31, 2-((1-(4,4-difluorocyclohexyl)-4-oxo-4,5-dihydro-1H-pyrazolo[3,4-d]pyrimidin-6-yl)thio)-N-(5-bromo-1,3,4-thiadiazol-2-yl)propanamide] returned an IC50 of 0.1 nM.

“N-(5-(isopropylthio)-1,3,4-thiadiazol-2-yl)-2-((4-oxo-1-phenyl-4,5-dihydro-1H-pyrazolo[3,4-d]pyrimidin-6-yl)thio)acetamide [Example 14]” had an IC50 of 9 nM.

In turn, `Cc1nnc(NC(=O)C(C)Sc2nc3c(cnn3-c3ccccc3)c(=O)[nH]2)s1` (centres unmarked) [Example 10, N-(5-methyl-1,3,4-thiadiazol-2-yl)-2-((4-oxo-1-phenyl-4,5-dihydro-1H-pyrazolo[3,4-d]pyrimidin-6-yl)thio)propanamide] showed an IC50 of 150 nM.

In the case of `CC(C)n1ncc2c(=O)[nH]c(SCC(=O)Nc3nnc(Cl)s3)nc21` [Example 43, N-(5-chloro-1,3,4-thiadiazol-2-yl)-2-((1-isopropyl-4-oxo-4.5-dihydro-1H-pyrazolo[3,4-d]pyrimidin-6-yl)thio)acetamide], the IC50 is 3 nM.

`CCSc1nnc(NC(=O)CSc2nc3c(cnn3-c3ccccc3)c(=O)[nH]2)s1` [Example 2, N-(5-(ethylthio)-1,3,4-thiadiazol-2-yl)-2-((4-oxo-1-phenyl-4,5-dihydro-1H-pyrazolo[3,4-d]pyrimidin-6-yl)thio)acetamide]: the IC50 was determined as 10 nM.
